Measured values: paper PMC6312359, “Diisopropylphenyl-imidazole (DII): A new compound that exerts anthelmintic activity through novel molecular mechanisms” (PLoS Neglected Tropical Diseases, 2018)
Values after ≈ are worked out from the molar mass of the structure shown. Values joined by “and” are separate entries in the source; they are usually repeats but may differ in a detail not shown here. Identical values can stand only once. Like-named read-outs stand apart in the source and are kept apart here.

Assays:
[1] = system: Escherichia coli ATCC 25922; test: Minimum inhibitory and bactericidal concentrations, microdilution; assay type: cell-based; settings: 24 h at 37°C; for MBC / MIC: Escherichia coli, ATCC25922
Experimental: (§1) The strains used in this study were Escherichia coli ATCC 25922 and Staphylococcus aureus ATCC 25923, kindly provided by Dr. Ziegler (Bacillus Genetic Stock Center, The Ohio State University). Stocks were stored in Mueller Hinton Broth (MHB, Biokar Diagnostics, France) supplemented with glycerol 20% at -70°C. Before running each test, the strains were incubated for 48 h at 37°C in MHB. Finally, the bacterial strains were sub-cultured in MHB at 37°C for 24 h. The solutions of antimicrobial agents and imidazolium salts were prepared following the Clinical and Laboratory Standards Institute (CLSI) guidelines for determination of Minimum Inhibitory Concentrations by the microdilution method (CLSI 2009). […] Cultures were incubated as described above and adjusted to OD625nm ~ 0.08–0.13 by the direct colony suspension method in saline water and finally adjusted to 2–8 10^5 CFU/ml by diluting 1:150 in MHB before testing. A volume of 100 μl of each sample dilution in saline water was transferred to the microplate well. Finally, an equal volume of the inoculum was added. The MIC was the lowest concentration at which there was no visible growth when compared with controls after 24 h at 37°C. To assess the minimum bactericidal concentration (MBC), 20 μl aliquots were taken from the wells where no visible growth was observed, seeded on petri dishes and covered with MH agar (MHA) at 45°C. The compounds were considered bactericidal at the concentration at which no visible colony was observed on the plate after 24 h at 37°C. All conditions were run at least in duplicate. The results were obtained from at least 3 independent experiments.

[2] = system: Staphylococcus aureus ATCC 25923; test: as above; assay type: cell-based; settings: ATCC25923, 24 h at 37°C; for MBC: read-out: MBC S. aureus; for MIC: read-out: MIC S. aureus
Experimental: as §1

E. coli OP50 = test: OP50 growth in screening wells (qualitative); assay type: cell-based, Escherichia coli; settings: 150 μg/ml, qualitative observation
Description: During the screening assays, we qualitatively noticed that OP50 growth was inhibited in wells containing MI. This effect was not observed with DII. To quantify this observation, we determined minimum inhibitory concentration (MIC) and minimum bactericidal concentration (MBC) of both compounds in E. coli cultures (Fig 2A). […] Similar values were obtained when we performed these assays on S. aureus, a Gram-positive bacteria (Fig 2A). […] As we are here screening for specific anthelmintic activity, we restricted our further analysis to compounds that appear to exert nematicidal action without obvious lethal effects on other organisms. Therefore, we focused our studies only on DII, relegating the evaluation of MI as a potential anthelmintic drug.

C. elegans [3] = test: Screening imidazole compounds: worm survival; assay type: in vivo, Caenorhabditis elegans; settings: 150 μg/ml, 72 h, 20°C, young adult wild-type worms, liquid medium (S-Basal) with E. coli OP50
Experimental: 100–150 young adult wild-type worms were exposed to these compounds (150 μg/ml) in liquid medium (S-Basal) containing E. coli OP50. Micromolar concentrations for each compound are: 487 μM for 1, 428 μM for 2, 410 μM for 3, 375 μM for 4, 789 μM for 5, 735 μM for 6, 389 μM for 7, 319 μM for 8, 263 μM for 9, 806 μM for 10 and 657 μM for 11. Compounds were dissolved in water or DMSO according to their solubility. After 72 h, animal survival was analyzed. An animal was considered dead if it made no movement in response to gentle prodding with a worm pick. At least three independent experiments were analyzed.
We exposed 100–150 young adult worms to these compounds in liquid medium (S-Basal) containing the bacteria E. coli OP50 as a food source. After 72 h at 20°C, we analyzed worm survival (Fig 1B). […] The drug concentration chosen for this screening was 150 μg/ml, which is similar to those used in other screening studies. The corresponding molar concentration for each compound is detailed in Materials and Methods. Depending on their solubility properties, the compounds were dissolved either in water or DMSO (up to 0.75% final concentration).

C. elegans [4] = system: C. elegans; set-up: method as in PMID 21195075, PMID 23869246; settings: 24 h, even at millimolar concentrations, ref [39], [41]; cited from earlier work
C. elegans [5] = test: Acute paralysis assays; assay type: in vivo, Caenorhabditis elegans
Experimental: Acute paralysis assays were carried out in microtiter plates containing the drug dissolved in M9 buffer. […] Each drug concentration was tested in two wells (containing 30 animals each) within a single experiment. […] The experiment was independently repeated at least three times.

C. elegans [6] = test: Worm cut preparation paralysis; assay type: in vivo, Caenorhabditis elegans; settings: 10 min; DII 600 μM, levamisole 10 μM
Experimental: Cutworm assays were performed as previously described with slight modifications. Briefly, synchronized young adult animals were mounted in a glass microscope slide containing Artificial Perienteric Fluid (APF) (67 mM NaCl, 67 mM NaCH3COOH, 3 mM KCl, 15.7 mM MgCl2, 3 mM CaCl2 and 5 mM Tris, pH 7.6). 10 animals were severed between the middle and tail, approximately two-thirds from the anterior end. Worms were subsequently transferred to a multi-well plate containing APF or drug-APF and paralysis was evaluated after 10 minutes. All experiments were performed at least three times.

C. elegans [7] = test: Body length measurements; assay type: in vivo, Caenorhabditis elegans; settings: 600 μM, 2 h
Experimental: Vehicle (0.75% DMSO) was used as a control. After 2 h, images were acquired and body length was measured using FIJI-ImageJ software. At least three independent experiments were analyzed.

C. elegans [8] = test: Egg-laying assays; assay type: in vivo, Caenorhabditis elegans; settings: gravid worms
Experimental: Age-synchronized gravid worms were transferred to solid NGM plates containing different drug concentrations (100–300 μM). Each concentration was evaluated in triplicate and DMSO was used as a control. After 1 h, the number of laid eggs per worm was counted. This experiment was independently repeated three times.

## Cc1cc(C)c(-n2ccnc2)c(C)c1 [Compound 10, mesityl-imidazole]
[1]; listed as MI (10)
  MIC E. coli: 128 µg/mL (≈ 687 µM)
[1]
  MBC: > 256 µg/mL
  MIC: 128 µg/mL and 680 µM
[2]
  MBC: > 256 µg/mL
  MIC: 128 µg/mL (≈ 687 µM)
E. coli OP50
  OP50 growth in screening wells: inhibited
C. elegans [3]
  worm death: 100%

## CCCSc1ccc2nc(NC(=O)OC)[nH]c2c1 [albendazole]
C. elegans [4]
  C. elegans death: less than 25%

## O=C(O)c1cn(C2CC2)c2cc(N3CCNCC3)c(F)cc2c1=O [cipro., ciprofloxacin, reference compound]
[1]
  MBC: 1 µg/mL (≈ 3.02 µM)
  MIC: 0.25 µg/mL (≈ 0.754 µM)
[2]
  MBC: 1 µg/mL (≈ 3.02 µM)
  MIC: 0.5 µg/mL (≈ 1.51 µM)

## c1ccc([C@H]2CN3CCSC3=N2)cc1 [levamisole]
C. elegans [5]; 100 μM, 10 min
  paralysis in CB407 unc-49(e407)III hypersensitive strain: hypersensitive
C. elegans [5]; 600 μM, 10 min
  paralyzed animals: 100%
C. elegans [5]; 10 min, L4 wild-type, Fig 4B, read-out: EC50 acute paralysis
  EC50: 63.6 µM
C. elegans [5]; Caenorhabditis elegans, 10 min, Fig 4E black circle (probably levamisole alone), 10 min, read-out: EC50 levamisole paralysis
  EC50: 60 ± 1.12 µM
C. elegans [5]; Caenorhabditis elegans, 10 min, Fig 4E dark pink triangle up (constant DII, probably 100 μM), 10 min, read-out: EC50 levamisole paralysis in presence of DII
  EC50: 66 ± 1.15 µM
C. elegans [5]; Caenorhabditis elegans, 10 min, Fig 4E light pink triangle down (constant DII, probably 200 μM), 10 min, read-out: EC50 levamisole paralysis in presence of DII
  EC50: 62.2 ± 1.14 µM
C. elegans [5]; Caenorhabditis elegans, 10 min, L4 wild-type, Fig 4B, read-out: EC50 acute paralysis
  EC50: 63.6 ± 1.1 µM
C. elegans [5]; Caenorhabditis elegans, 24 h, S5D Fig pink triangle (probably DII 100 μM for 24 h and during assay), read-out: EC50 levamisole paralysis after DII pre-exposure
  EC50: 82.2 ± 1.39 µM
C. elegans [5]; Caenorhabditis elegans, S5D Fig black circle (probably control without DII), read-out: EC50 levamisole paralysis
  EC50: 82.4 ± 1.23 µM
C. elegans [6]
  paralysis in cut specimens: paralysis is achieved at very low levamisole concentrations
C. elegans [7]
  body length: worm shrinkage
C. elegans [8]; 100 μM
  laid eggs in 1 h, fold more than controls: 3.8 fold
C. elegans [8]; 300 μM
  laid eggs in 1 h, fold more than controls: 3.2 fold

## CC(=O)Oc1ccccc1C(=O)Nc1ncc([N+](=O)[O-])s1 [nitazoxanide]
C. elegans [4]
  C. elegans death: less than 25%

## CN1CCCN=C1/C=C/c1cccs1 [pyrantel]
C. elegans [4]
  C. elegans death: less than 25%

## ivermectin
C. elegans [4]
  C. elegans death: less than 25%
